These results are taken from patent publication US11285093B2, “Cosmetic uses of swertiamarin” (LUCAS MEYER COSMETICS, priority 2014, dated 2022).

Data set [1] relates to human keratinocytes. Nature of the data set: Scratch assay on monolayer culture of human keratinocytes. Type of data set: cell-based. The note with it: 72 hours. The method, then: Normal keratinocytes surgically sampled in a person were cultivated so as to obtain a monolayer culture of keratinocytes.
When confluence was attained, a lesion (“scratch”) was carried out in each cell culture so as to locally remove an equivalent amount of keratinocytes.
Each culture of keratinocytes was then incubated at 37° C. in a humid atmosphere and in the presence of 5% of CO2, in the presence of an adipocyte culture medium conditioned with swertiamarin (0.0025%; 0.005%; 0.0075% by weight), for 72 hours. The swertiamarin was introduced into the adipocyte culture medium by dilution of a stock solution at 10% in DMSO. The final amount of DMSO in the culture media is 0.15%. […]
The surface corresponding to the “lesion” (i.e. to the area where the keratinocytes were removed) was measured before (t=0) and after incubation for each cell culture from photographs obtained by optical microscopy by using the software package Image J.
The results were expressed as a percentage of re-colonized surface relative to the surface observed at t=0.
The statistical significance of the differences obtained between the groups “DMSO Control” and the groups “TGF-β Controls” was evaluated by using the t-test (***: p<0.001). […]

The test system of data set [2] is keratinocyte growth factor (KGF). Nature of the data set: KGF quantification by ELISA in culture medium of human adipocytes. The format is cell-based. As to conditions: 0.0075% by weight of swertiamarin, 15 hours, normal human adipocytes, vs DMSO control. The procedure:
A stock solution at 10% by weight of swertiamarin in DMSO was prepared. This solution was then diluted in the culture medium so as to obtain a final concentration of 0.0075% by weight of swertiamarin.
A culture of normal human adipocytes, obtained from adipocytes sampled by abdominal plastic surgery in a person, was incubated for 15 hours with the culture medium containing swertiamarin. As a negative control, a culture of adipocytes incubated for 15 hours with a culture medium without any swertiamarin but containing the same amount of DMSO was used.
At the end of the incubation, the amount of KGF was quantified in each culture medium by an ELISA test. The statistical significance of the differences between the “control” groups and the “test groups” was evaluated by variance analysis (One way Anova) followed by the Holm Sida test (p*<0.05).
In general terms: In an ELISA, binding on a coated surface is turned into a signal by an enzyme label.

For data set [3], the system named is fibronectin. Briefly: Fibronectin synthesis by normal human fibroblasts of the dermis (NHDF), ELISA. The note with it: 24 h or 48 h. The format is cell-based. The procedure: The applied test was based on the synthesis of fibronectin induced by TGF-β by cells of normal human fibroblasts of the dermis (NHDF) in a monolayer culture. The culture was produced by using as a culture medium DMEM (Eurobio, CMODME70-08) containing 10% of fetal calf serum (Eurobio, CVFSV00-0U), 1% of antibiotics (penicillin/streptomycin, Eurobio, CABPES01-OU) and 1% of L-glutamine (Eurobio, CSTGLUOO-OU), at a temperature of 37° C. under 5% of CO2 and 95% of humidity.
The cells were then sown, in the presence of complete DMEM, in microplates in an amount of 2.5*10^4 cells per well and then incubated at a temperature of 37° C. under 5% of CO2 and 95% of humidity. The culture medium was replaced after 24 hours in order to bring the cells to a quiescent state.
Next, the cells were incubated in the presence of TGF-β or swertiamarin for 24 h or 48 h. The cell supernatants were then collected in order to quantify fibronectin by an ELISA test (BMS028, Ebiosciences). The cell viability level was also determined by the standard MTT test. As a control, cells were incubated under the same conditions but in the absence of TGF-β and of swertiamarin (control).
The results are expressed as a percentage of the amount of fibronectin produced per mL relative to the amount of fibronectin produced by the group of control experiments.

The subject of data set [4] is human skin explants.
Protocol: 21 skin explants with a diameter of 10 mm were prepared from these samples, among which 12 are skin explants without any adipose tissue (epidermis+dermis explant) and 9 are full skin explants (epidermis+dermis+hypodermis). The explants are maintained alive in a BEM medium at 37° C. in the presence of a humid atmosphere with 5% of CO2. The skin explants were distributed into three groups: • Group 1: a cream containing swertiamarin (SWT) in an amount of 0.025% was applied at days 0, 1, 2, 3, 6 and 7 of the incubation, to the surface of the skin explants by means of a spatula (1 μl in the morning and 1 μl in the evening), • Group 2: a placebo cream (free of swertiamarin) was applied on days 0, 1, 2, 3, 6 and 7 of the incubation, to the surface of the skin explants by means of a spatula (1 μl in the mornings and 1 μl in the evenings), • Group 3: this control group was maintained alive without any treatment (without application of a placebo cream or of cream based on swertiamarin).
On day 9, the skin explants are recovered, chemically bound in a formol solution for 24 hours, dehydrated, impregnated with paraffin and then infiltrated with resin according to the SOP H-53 protocol. Fine cuts are then made in each explant and observed by optical microscopy after staining.

For Swertiamarin, in data set [1] (adipocyte culture medium conditioned with 0.0025% swertiamarin), the “increase of the surface area re-colonized by the keratinocytes vs DMSO Control” value is recorded as “+64.6%”. The “increase in the average amount of KGF in the culture medium” value in data set [2] is recorded as “about 16.4%”. Also, the “increase of the amount of fibronectin vs control” value in data set [3] (0.005% swertiamarin) is on record as “more than 171%”. In addition, in data set [4], the “morphological alteration of treated skin explants” value is on record as “do not exhibit any notable morphological alteration”.

Regarding TGF-β [reference compound], the “cell re-colonization (re-colonized surface) vs DMSO Control” value in data set [1] (TGF-β 10 ng/ml, p<0.001) is given as “+124.1%”. Also, in data set [3] (TGF-β), the “production of fibronectin vs control” value is “+64%”.
